The source of these data is US5003055A, “Anthracycline derivatives having inhibitory activity against reverse transcriptase of human immunodeficiency virus” (priority 1987, dated 1991).

The conditions of series [1]: background statement; cited from earlier work.
For series [2], the system named is mouse lymphocytic leukemia P-388 cells. The experiment in a line: Cytotoxicity against P-388 cells (proliferation, MTT technique). It is filed as cell-based. The settings on record: for IC50: Mus musculus, P388, 48 h, read-out: Cytotoxicity against P-388 cells (IC50, μg/ml) (B); for Cytotoxicity against P-388 cells (IC50, μg/ml) (B): 2880 min. Here is the method: (b) On the other hand, the cytotoxicity was measured in the following manner. The novel anthracycline derivative of this invention was added to 5×10^3 cells of mouse lymphocytic leukemia P-388 in an incubation medium. After stirring, themixture was incubated Forty-eight hours later, the rate (%) of proliferation of the cells was measured by the MTT technique.

In series [3] the target is HIV reverse transcriptase (Human immunodeficiency virus type 1 group M subtype B, UniProt P04585). The experiment in a line: biochemical. The settings on record: for IC50: HIV reverse transcriptase inhibitory activity (IC50, μg/ml) (A), 37° C., 30 minutes, HIV lysate; for Enzyme inhibitory activity/cytotoxicity ratio (A)/(B): ratio of IC50 HIV reverse transcriptase (A) to IC50 P-388 (B). Here is the method: (a) After treating a supernatant of a culture of HIV-infected T4-cells (Molt 4/HTLV 1116/H9) with 9.5% polyethylene glycol for 3 hours, the supernatant was centrifuged at 2500 rpm for 30 minutes to obtain a precipitate. This precipitate was lysed with a mixture comprising 33.3% glycerol, […] tris-HCl (pH 7.5), 533 mM KCl, 0.32% Triton X-100 and 3.3 mM dithiothreitol, so as to prepare an HIV lysate (2.5×10^6 PFU/ml) The activity of the reverse transcriptase present in the HIV lysate thus prepared was determined in terms of the up-take rate of [α-^32 P]dATP during the synthesis of DNA, with using rabbit-β-globin mRNA and oligo dT as the template and primer, respectively. Thus, 1 μl of the HIV lysate was added to 9 μl of an enzymatic reaction solution comprising 50 mM tris-HCl (pH 8.3), 70 mM KCl, 10 mM MgCl2, 30 mM mercaptoethanol, 90 nM dNTPs, 3.3 μg/ml oligo dT, 8.3 mU/ml human placenta RNase inhibitor, 5 μg/ml β-globin mRNA, 0.14 mCi/ml [α-^32 P]dATP. After incubating the resultant mixture at 37° C. for 30 minutes, 10% aqueous trichloroacetic acid (TCA) was added to terminate the reaction.
After completion of the reaction, the whole reaction mixture was placed on a nitrocellulose membrane filter so as to adsorb the resultant DNA into the filter. The filter was then washed with 5% TCA and 20 mM sodium pyrophosphate to remove the unreacted [α-^32 P]dATP therefrom. The amount of the resultant DNA on the nitrocellulose membrane filter was calculated by measuring its radioactivity.
The novel anthracycline derivatives of this invention were separately added to the enzymatic reaction solution. The above experiment was repeated using the so prepared enzymatic reaction solution containing the anthracycline derivative as a test compound, so that the evaluation was made of IC50 of the test compound inhibitory to the activity of the HIV reverse transcriptase, namely the concentration of the test compound which was 50% inhibitory to the activity of the HIV reverse transcriptase.

Values after ≈ are worked out from the molar mass of the structure shown. Structures can show the parent of a compound that is named as a salt. Where two headings read alike, the source gives them in different places.

For the compound `COc1cccc2c1C(=O)c1c(O)c3c(c(O)c1C2=O)C[C@@](O)(C(=O)CO)C[C@@H]3O[C@H]1C[C@H](N)[C@H](O)[C@H](C)O1` [ADM, adriamycin, reference compound], the “toxicity (in words)” value in series [1] is listed as “high toxicity”. The IC50 in series [2] (P-388, 48 hours, MTT technique) worked out at 0.037 µg/mL (≈ 0.0681 µM).
Take `COc1cccc2c1C(=O)c1c(O)c3c(c(O)c1C2=O)C[C@@](O)(C(=O)CO)C[C@@H]3O[C@H]1C[C@H](N)[C@H](O)[C@H](C)O1` [ADM.HCl, reference compound]: in series [2] (P-388, 48 hours, MTT technique), the “Cytotoxicity against P-388 cells (IC50, μg/ml) (B)” value (“Cytotoxicity against P-388 cells” below) turned out to be 0.02 µg/mL.
As for `COCc1ccc(C(=O)OCC(=O)[C@]2(O)Cc3c(O)c4c(c(O)c3[C@@H](O[C@H]3C[C@H](N)[C@H](O)[C@H](C)O3)C2)C(=O)c2c(OC)cccc2C4=O)cc1OC` [NOVA-1, 14-O-(3-methoxy-4-methoxymethylbenzoyl)adriamycin], the IC50 in series [3] is 41.6 µM; in series [2] (P-388, 48 hours, MTT technique), 0.29 µg/mL (≈ 0.402 µM). For the same compound, the “Enzyme inhibitory activity/cytotoxicity ratio (A)/(B)” value in series [3] is 103.
For the compound `CCCCCCOCc1ccc(C(=O)OCC(=O)[C@]2(O)Cc3c(O)c4c(c(O)c3[C@@H](O[C@H]3C[C@H](N)[C@H](O)[C@H](C)O3)C2)C(=O)c2c(OC)cccc2C4=O)cc1OCCCCCC` [NOVA-2, 14-O-(3-n-hexyloxy-4-n-hexyloxymethylbenzoyl)adriamycin], the IC50 was 19.7 µM in series [3] and 0.48 µg/mL (≈ 0.557 µM) in series [2] (P-388, 48 hours, MTT technique). Also, the “Enzyme inhibitory activity/cytotoxicity ratio (A)/(B)” value in series [3] was found to be 35.
Take `CCCCCCCCCCCOCc1ccc(C(=O)OCC(=O)[C@]2(O)Cc3c(O)c4c(c(O)c3[C@@H](O[C@H]3C[C@H](N)[C@H](O)[C@H](C)O3)C2)C(=O)c2c(OC)cccc2C4=O)cc1OCCCCCCCCCCC` [NOVA-3.HCl, 14-O-(3-n-undecyloxy-4-n-undecyloxymethylbenzoyl)adriamycin hydrochloride]: in series [3], the IC50 was determined as 18.5 µM and the “Enzyme inhibitory activity/cytotoxicity ratio (A)/(B)” value was determined as 38. In addition, in series [2] (P-388, 48 hours, MTT technique), the IC50 was determined as 0.49 µg/mL.
On to `CCCCCCCCCCCOc1cc(C(=O)OCC(=O)[C@]2(O)Cc3c(O)c4c(c(O)c3[C@@H](O[C@H]3C[C@H](N)[C@H](O)[C@H](C)O3)C2)C(=O)c2c(OC)cccc2C4=O)ccc1CO` [NOVA-4, 14-O-(3-n-undecyloxy-4-hydroxymethylbenzoyl)adriamycin], for which, in series [3], the IC50 was 14.7 µM and the “Enzyme inhibitory activity/cytotoxicity ratio (A)/(B)” value stood at 25. In addition, in series [2] (P-388, 48 hours, MTT technique), the IC50 stood at 0.5 µg/mL (≈ 0.59 µM).
`CCCCCCCCCCCCCCCCCCOCc1ccc(C(=O)OCC(=O)[C@]2(O)Cc3c(O)c4c(c(O)c3[C@@H](O[C@H]3C[C@H](N)[C@H](O)[C@H](C)O3)C2)C(=O)c2c(OC)cccc2C4=O)cc1OCCCCCCCCCCCCCCCCCC` [NOVA-5.HCl, 14-O-(3-n-octadecyloxy-4-n-octadecyloxymethylbenzoyl)adriamycin hydrochloride]: in series [3], the IC50 is 18.4 µM and the “Enzyme inhibitory activity/cytotoxicity ratio (A)/(B)” value came out at 6.9. Further, the IC50 in series [2] (P-388, 48 hours, MTT technique) turned out to be 3.2 µg/mL.
On to `COc1cccc2c1C(=O)c1c(O)c3c(c(O)c1C2=O)C[C@@](O)(C(=O)COC(=O)c1ccc(CO)c(O)c1)C[C@@H]3O[C@H]1C[C@H](N)[C@H](O)[C@H](C)O1` [NOVA-6, 14-O-(3-hydroxy-4-hydroxymethylbenzoyl)adriamycin], for which the IC50 is 79.3 µM in series [3] and 0.15 µg/mL (≈ 0.216 µM) in series [2] (P-388, 48 hours, MTT technique). Moreover, the “Enzyme inhibitory activity/cytotoxicity ratio (A)/(B)” value in series [3] is listed as 370.
Turning to `COc1cccc2c1C(=O)c1c(O)c3c(c(O)c1C2=O)C[C@@](O)(C(=O)COC(=O)c1ccc2c(c1)OC(C)(C)OC2)C[C@@H]3O[C@H]1C[C@H](N)[C@H](O)[C@H](C)O1` [NOVA-7, 14-O-(0-isopropylidene-3-hydroxy4-hydroxymethylbenzoyl)adriamycin], in series [3], the IC50 is 31.3 µM and the “Enzyme inhibitory activity/cytotoxicity ratio (A)/(B)” value is on record as 121. The IC50 in series [2] worked out at 0.19 µg/mL (≈ 0.259 µM).
For the compound `COc1ccc(C(=O)OCC(=O)[C@]2(O)Cc3c(O)c4c(c(O)c3[C@@H](O[C@H]3C[C@H](N)[C@H](O)[C@H](C)O3)C2)C(=O)c2c(OC)cccc2C4=O)cc1OC` [NOVA-8, 14-O-(3,4-dimethoxybenzoyl)-adriamycin], in series [3], the IC50 is 26.8 µM and the “Enzyme inhibitory activity/cytotoxicity ratio (A)/(B)” value is 58. The IC50 in series [2] (P-388, 48 hours, MTT technique) amounted to 0.33 µg/mL (≈ 0.466 µM).
Take `CCCCCCOc1ccc(C(=O)OCC(=O)[C@]2(O)Cc3c(O)c4c(c(O)c3[C@@H](O[C@H]3C[C@H](N)[C@H](O)[C@H](C)O3)C2)C(=O)c2c(OC)cccc2C4=O)cc1OCCCCCC` [NOVA-9, 14-O-(3,4-di-n-hexyloxybenzoyl)adriamycin]: in series [3], the IC50 is 23.6 µM and the “Enzyme inhibitory activity/cytotoxicity ratio (A)/(B)” value is 7.8. Further, in series [2] (P-388, 48 hours, MTT technique), the IC50 was found to be 2.6 µg/mL (≈ 3.07 µM).
As to `CCCCCCOc1ccc(C(=O)OCC(=O)[C@]2(O)Cc3c(O)c4c(c(O)c3[C@@H](O[C@H]3C[C@H](N)[C@H](O)[C@H](C)O3)C2)C(=O)c2c(OC)cccc2C4=O)cc1OCCCCCC` [NOVA-9.1/2H2 SO4], in series [3], the IC50 is 27.1 µM and the “Enzyme inhibitory activity/cytotoxicity ratio (A)/(B)” value was found to be 4.4. Moreover, the “Cytotoxicity against P-388 cells” value in series [2] (P-388, 48 hours, MTT technique) is 5.2 µg/mL.
Consider `CCCCCCOc1ccc(C(=O)OCC(=O)[C@]2(O)Cc3c(O)c4c(c(O)c3[C@@H](O[C@H]3C[C@H](N)[C@H](O)[C@H](C)O3)C2)C(=O)c2c(OC)cccc2C4=O)cc1OCCCCCC` [NOVA-9.HCl], for which, in series [3], the IC50 is 17.7 µM and the “Enzyme inhibitory activity/cytotoxicity ratio (A)/(B)” value was 4.8. Also, in series [2] (P-388, 48 hours, MTT technique), the “Cytotoxicity against P-388 cells” value is 3.1 µg/mL.
Consider `CCCCCCCCCCCOc1ccc(C(=O)OCC(=O)[C@]2(O)Cc3c(O)c4c(c(O)c3[C@@H](O[C@H]3C[C@H](N)[C@H](O)[C@H](C)O3)C2)C(=O)c2c(OC)cccc2C4=O)cc1OCCCCCCCCCCC` [NOVA-10.HCl], for which, in series [3], the IC50 is 16.2 µM and the “Enzyme inhibitory activity/cytotoxicity ratio (A)/(B)” value is 8.9. Moreover, the IC50 in series [2] (P-388, 48 hours, MTT technique) was found to be 1.8 µg/mL.
For the compound `CCCCCCCCCCCCCCCCCCOc1ccc(C(=O)OCC(=O)[C@]2(O)Cc3c(O)c4c(c(O)c3[C@@H](O[C@H]3C[C@H](N)[C@H](O)[C@H](C)O3)C2)C(=O)c2c(OC)cccc2C4=O)cc1OCCCCCCCCCCCCCCCCCC` [NOVA-11.HCl], in series [3], the IC50 is 84.4 µM and the “Enzyme inhibitory activity/cytotoxicity ratio (A)/(B)” value came out at 53. The IC50 in series [2] (P-388, 48 hours, MTT technique) was determined as 1.9 µg/mL.
For `CCCCC(=O)Oc1ccc(C(=O)OCC(=O)[C@]2(O)Cc3c(O)c4c(c(O)c3[C@@H](O[C@H]3C[C@H](N)[C@H](O)[C@H](C)O3)C2)C(=O)c2c(OC)cccc2C4=O)cc1OC(=O)CCCC` [NOVA-12.HCl], in that order: 13 µM, 50 and 0.22 µg/mL.
